Key:
[1] = tested on: Phospho-S6 Ribosomal Protein (S235/236); assay: Inhibition of kinase phosphorylation by Western Blot in MV-4-11; assay type: cell-based; conditions: MV-4-11 cells, 4 hour-incubation; read-out: pS6 MV-4-11 IC50
Experimental: (§1) Inhibition of kinase phosphorylation assay was performed by Western Blot using MV-4-11 and MOLM13 cell lines. Cells were plated in 24 well plates at 1 million cells per well and then treated with compounds at different concentrations, starting at 100 nM, 1:4 titration with DMSO as control. After 4 hour-incubation, cells were washed once with ice-cold PBS, and lysed in RIPA lysis buffer with protease and phosphatase inhibitors. The cell lysates were then sonicated and spun down, and 40 μg of proteins were separated by sodium dodecyl sulfate electrophoresis on a 4 to 12% Bis-Tris polyacrylamide gel and transferred onto nitrocellulose membranes using Bio-Rad Trans-Blot Turbo Transfer System (Bio-Rad). Blocking was performed using 3% BSA or 5% Non-fat dry milk (Fisher Scientific) in TBST (Tris-buffered saline containing 0.05% of Tween 20) (Bio-Rad Laboratories, Inc.). The membranes were incubated overnight with anti-phospho-FLT3 (Y589/Y591) (CST #60413), anti-phospho-STAT5 (Y694) (CST #4322), anti-Phospho-p44/42 MAPK (Erk1/2) (T202/Y204) (CST #9101), anti-Phospho-S6 Ribosomal Protein (S235/236) (CST #4858) and anti-β-Actin (CST #8457) each diluted 1000 times in 3% BSA in TBST. Membranes were washed with TBST and then incubated at room temperature for 1 hour with HRP-labeled anti-rabbit IgG polyclonal antibody (CST #7074) diluted 1000 times in 3% BSA. After TBST washing, blots were developed with a chemiluminescence system (SuperSignal West Femto Maximum Sensitivity Substrate, Pierce #34095). Luminescence was detected by LI-COR Odyssey M imaging system and luminescence intensity were quantified using Empiria Studio 2.2 software. Data was analyzed using GraphPad Prism 9 (GraphPad Software, San Diego, CA) to obtain IC50 values.

phospho-STAT5 (Y694) [2] = assay: as above; assay type: cell-based; conditions: MV-4-11 cells, 4 hour-incubation; read-out: pSTAT5 MV-4-11 IC50
Experimental: as §1

phospho-FLT3 (Y589/Y591) = phospho-FLT3 (Y589/Y591) (Homo sapiens, UniProt P36888, INS600FREYEYD); assay: Inhibition of kinase phosphorylation by Western Blot in MOLM-13; assay type: cell-based; conditions: MOLM-13 cells, 4 hour-incubation; read-out: pFLT3 MOLM-13 IC50
phospho-STAT5 (Y694) [3] = assay: as above; assay type: cell-based; conditions: MOLM-13 cells, 4 hour-incubation; read-out: pSTAT5 MOLM-13 IC50
Experimental: as §1

MV-4-11 tumor = assay: Cell-derived xenograft (CDX) tumor model; assay type: in vivo; conditions: MV-4-11 CDX, mice, 20 days
Experimental: (§2) Tumor cells were cultured using standard techniques described above and were harvested and pelleted by centrifugation at 1000 rpm for 5 minutes. The pelleted cells were washed once with serum-free medium followed by subsequent re-suspension in the serum-free medium supplemented with 50% matrigel (Corning, Inc). Five million tumor cells were implanted subcutaneously to the right flank of each mouse, followed by tumor volume and body weight measurement once or twice per week with an electronic caliper (Fowler) and a balance, respectively. When the average tumor size reached a pre-determined volume, the mice were grouped and treated with Ex. 6. One group of mice were treated with vehicle as control. During treatment, mice were monitored daily by cage side observation. The tumor volume (TV) and body weight was measured twice or three times per week during the treatment. Study ended either after 4-5 weeks of treatment or tumor volume of any mice reached 1000 or 2000 mm^3. Tumor growth inhibition (TGI) was be calculated as follows: […]

SW480 tumor = assay: Cell-derived xenograft (CDX) tumor model; assay type: in vivo; conditions: mice, oral 25 mg/kg QD, 28 days
Experimental: as §2

MOLM-13 tumor = assay: Cell-derived xenograft (CDX) tumor model; assay type: in vivo; conditions: MOLM-13 CDX, mice, 13 days
Experimental: as §2

SW403 tumor = assay: Cell-derived xenograft (CDX) tumor model; assay type: in vivo; conditions: mice, oral 25 mg/kg QD, 20 days
Experimental: as §2

IMR-32 tumor = assay: Cell-derived xenograft (CDX) tumor model; assay type: in vivo; conditions: IMR-32 CDX, mice, oral 25 mg/kg QD, 8 days
Experimental: as §2

MOLM-13 cell line = assay: Alternative splicing events by RNAseq in MOLM-13; assay type: cell-based; conditions: 8 hour-incubation
Experimental: Alternative splicing events were measured by RNAseq in MOLM-13 cell line. Cells were plated in 24 well plates at 1 million cells per well and then treated with compounds at different concentrations, with DMSO as control. After 8 hour-incubation, cells were harvested and washed once with ice-cold PBS, and lysed in RNA lysis buffer (Invitrogen). Total RNA was extracted using the RNA Purification Kit (Invitrogen). RNAseq was performed by Biomiga (San Diego).

PIM1 = PIM1 (Homo sapiens (Human), UniProt P11309); assay: HotSpot radiometric kinase assay (Reaction Biology); assay type: biochemical
Experimental: (§3) Briefly, specific kinase/substrate pairs along with required cofactors were prepared in reaction buffer; 20 mM Hepes pH 7.5, 10 mM MgCl2, 1 mM EGTA, 0.02% Brij35, 0.02 mg/ml BSA, 0.1 mM Na3VO4, 2 mM DTT, 1% DMSO. Compounds were delivered into the reaction, followed ˜20 minutes later by addition of a mixture of ATP (Sigma, St. Louis MO) and ^33P ATP (Perkin Elmer, Waltham MA) to a final concentration of […]. Reactions were carried out at room temperature for 120 min, followed by spotting of the reactions onto P81 ion exchange filter paper (Whatman Inc., Piscataway, NJ). Unbound phosphate was removed by extensive washing of filters in 0.75% phosphoric acid. […] IC50 values and curve fits were obtained using Prism (GraphPad Software).

PIM2 = PIM2 (Homo sapiens (Human), UniProt Q9P1W9); assay: as above; assay type: biochemical
Experimental: as §3

PIM3 = PIM3 (Homo sapiens (Human), UniProt Q86V86); assay: as above; assay type: biochemical
Experimental: as §3

Sequence of PIM2 (Q9P1W9 whole entry): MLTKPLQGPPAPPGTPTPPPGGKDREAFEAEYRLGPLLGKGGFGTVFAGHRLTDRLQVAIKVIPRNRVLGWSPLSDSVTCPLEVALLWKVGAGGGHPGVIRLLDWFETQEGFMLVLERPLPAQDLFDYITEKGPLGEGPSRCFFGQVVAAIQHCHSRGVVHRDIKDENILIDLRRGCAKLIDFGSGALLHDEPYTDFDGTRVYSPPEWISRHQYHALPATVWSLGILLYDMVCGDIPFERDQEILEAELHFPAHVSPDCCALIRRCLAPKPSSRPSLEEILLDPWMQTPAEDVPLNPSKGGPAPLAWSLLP
Sequence of phospho-FLT3 (Y589/Y591) (P36888 with tags, fused parts or gaps INS600FREYEYD limits assumed): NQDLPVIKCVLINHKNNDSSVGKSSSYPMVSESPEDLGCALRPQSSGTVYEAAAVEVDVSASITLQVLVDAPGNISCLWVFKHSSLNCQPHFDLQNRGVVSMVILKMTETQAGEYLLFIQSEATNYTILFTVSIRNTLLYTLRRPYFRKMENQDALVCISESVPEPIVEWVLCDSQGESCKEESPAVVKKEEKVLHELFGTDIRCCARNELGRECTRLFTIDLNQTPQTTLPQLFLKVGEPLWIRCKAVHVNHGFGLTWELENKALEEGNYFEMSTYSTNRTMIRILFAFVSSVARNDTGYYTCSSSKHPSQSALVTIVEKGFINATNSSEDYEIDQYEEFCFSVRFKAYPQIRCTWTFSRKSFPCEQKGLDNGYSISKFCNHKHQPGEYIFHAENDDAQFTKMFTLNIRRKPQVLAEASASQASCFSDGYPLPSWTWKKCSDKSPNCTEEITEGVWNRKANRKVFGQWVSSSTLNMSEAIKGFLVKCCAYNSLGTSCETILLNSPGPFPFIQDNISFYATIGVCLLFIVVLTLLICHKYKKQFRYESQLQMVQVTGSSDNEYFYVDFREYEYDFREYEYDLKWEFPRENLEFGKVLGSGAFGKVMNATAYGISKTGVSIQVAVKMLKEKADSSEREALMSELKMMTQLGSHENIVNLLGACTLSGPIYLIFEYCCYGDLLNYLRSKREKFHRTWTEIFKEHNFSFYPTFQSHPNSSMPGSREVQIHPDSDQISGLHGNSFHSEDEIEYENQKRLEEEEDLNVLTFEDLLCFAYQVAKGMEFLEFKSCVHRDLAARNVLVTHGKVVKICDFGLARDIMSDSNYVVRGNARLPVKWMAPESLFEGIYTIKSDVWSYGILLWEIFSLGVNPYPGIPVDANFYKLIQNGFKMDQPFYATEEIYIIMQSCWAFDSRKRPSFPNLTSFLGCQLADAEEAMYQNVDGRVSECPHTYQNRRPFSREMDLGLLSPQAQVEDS
Sequence of PIM1 (P11309 whole entry): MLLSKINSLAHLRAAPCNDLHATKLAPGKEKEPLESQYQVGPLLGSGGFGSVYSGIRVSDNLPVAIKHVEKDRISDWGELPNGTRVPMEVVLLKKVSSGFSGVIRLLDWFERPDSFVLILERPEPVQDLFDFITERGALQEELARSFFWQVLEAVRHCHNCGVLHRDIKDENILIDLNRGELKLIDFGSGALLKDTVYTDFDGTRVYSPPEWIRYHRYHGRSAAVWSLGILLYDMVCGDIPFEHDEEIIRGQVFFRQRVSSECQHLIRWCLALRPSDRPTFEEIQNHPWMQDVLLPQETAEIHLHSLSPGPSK

IC50 [1]: 0.41 nM
IC50 (phospho-STAT5 (Y694) [2]): 0.6 nM
IC50 (phospho-FLT3 (Y589/Y591)): 0.32 nM
IC50 (phospho-STAT5 (Y694) [3]): 0.72 nM
IC50 (PIM1): 2.65 nM
IC50 (PIM2): 5.68 nM
IC50 (PIM3): 0.115 nM
SMILES: CCc1nn(C)c2c1/C=C/c1n[nH]c3ccc(cc13)-c1cnn(C)c1OCCN(C)C2=O [Ex. 6, (17E)-16-ethyl-8,12,14-trimethyl-2,11,12,14-tetrahydro-8H-3,5-ethenotripyrazolo[3,4-f:3′,4′-j:4″,3″-n][1,4]oxazacyclopentadecin-13(10H)-one]
TGI % (MV-4-11 tumor; oral 6.25 mg/kg QD): 98.8%
TGI % (MV-4-11 tumor; oral 12.5 mg/kg QD): 189%
TGI % (MV-4-11 tumor; oral 25 mg/kg QD, 5dOn-2dOff): 200%
TGI % (MV-4-11 tumor; oral 25 mg/kg QD): 200%
TGI % (SW480 tumor): 93%
TGI % (MOLM-13 tumor; oral 12.5 mg/kg QD): 74%
TGI % (MOLM-13 tumor; oral 25 mg/kg QD): 94%
TGI % (SW403 tumor): 84%
TGI % (IMR-32 tumor): 82%
AS Events A3′SS (alternative 3′ splice site) (MOLM-13 cell line; MOLM-13, 30 nM): 371
AS Events A5′SS (alternative 5′ splice site) (MOLM-13 cell line; MOLM-13, 30 nM): 289
AS Events MXE (mutually exclusive exons) (MOLM-13 cell line; MOLM-13, 30 nM): 187
AS Events RI (retained intron) (MOLM-13 cell line; MOLM-13, 30 nM): 536
AS Events SE (skipped exon) (MOLM-13 cell line; MOLM-13, 30 nM): 2054
AS Events A3′SS (alternative 3′ splice site) (MOLM-13 cell line; MOLM-13, 100 nM): 559
AS Events A5′SS (alternative 5′ splice site) (MOLM-13 cell line; MOLM-13, 100 nM): 443
AS Events MXE (mutually exclusive exons) (MOLM-13 cell line; MOLM-13, 100 nM): 325
AS Events RI (retained intron) (MOLM-13 cell line; MOLM-13, 100 nM): 841
AS Events SE (skipped exon) (MOLM-13 cell line; MOLM-13, 100 nM): 4568
AS Events A3′SS (alternative 3′ splice site) (MOLM-13 cell line; MOLM-13, 300 nM): 722
AS Events A5′SS (alternative 5′ splice site) (MOLM-13 cell line; MOLM-13, 300 nM): 590
AS Events MXE (mutually exclusive exons) (MOLM-13 cell line; MOLM-13, 300 nM): 355
AS Events RI (retained intron) (MOLM-13 cell line; MOLM-13, 300 nM): 1184
AS Events SE (skipped exon) (MOLM-13 cell line; MOLM-13, 300 nM): 5093

— US20260070924A1, “INDAZOLE MACROCYCLES AND THEIR USE” (BLOSSOMHILL THERAPEUTICS, INC., priority 2022, published 2026)
